Experiment [1] concerns the target Rho-associated protein kinase 1 (Homo sapiens, UniProt Q13464). Nature of the experiment: Inhibition of human His-puritin-tagged ROCK1 expressed in Sf9 cells after 1 hr by FRET-based enzyme-coupled assay.
Experiment [2] deals with Rho-associated protein kinase 2 (Homo sapiens, UniProt O75116). Nature of the experiment: Inhibition of ROCK2 after 1 hr by FRET-based enzyme-coupled assay.
Sequence of Rho-associated protein kinase 2 (O75116 whole entry): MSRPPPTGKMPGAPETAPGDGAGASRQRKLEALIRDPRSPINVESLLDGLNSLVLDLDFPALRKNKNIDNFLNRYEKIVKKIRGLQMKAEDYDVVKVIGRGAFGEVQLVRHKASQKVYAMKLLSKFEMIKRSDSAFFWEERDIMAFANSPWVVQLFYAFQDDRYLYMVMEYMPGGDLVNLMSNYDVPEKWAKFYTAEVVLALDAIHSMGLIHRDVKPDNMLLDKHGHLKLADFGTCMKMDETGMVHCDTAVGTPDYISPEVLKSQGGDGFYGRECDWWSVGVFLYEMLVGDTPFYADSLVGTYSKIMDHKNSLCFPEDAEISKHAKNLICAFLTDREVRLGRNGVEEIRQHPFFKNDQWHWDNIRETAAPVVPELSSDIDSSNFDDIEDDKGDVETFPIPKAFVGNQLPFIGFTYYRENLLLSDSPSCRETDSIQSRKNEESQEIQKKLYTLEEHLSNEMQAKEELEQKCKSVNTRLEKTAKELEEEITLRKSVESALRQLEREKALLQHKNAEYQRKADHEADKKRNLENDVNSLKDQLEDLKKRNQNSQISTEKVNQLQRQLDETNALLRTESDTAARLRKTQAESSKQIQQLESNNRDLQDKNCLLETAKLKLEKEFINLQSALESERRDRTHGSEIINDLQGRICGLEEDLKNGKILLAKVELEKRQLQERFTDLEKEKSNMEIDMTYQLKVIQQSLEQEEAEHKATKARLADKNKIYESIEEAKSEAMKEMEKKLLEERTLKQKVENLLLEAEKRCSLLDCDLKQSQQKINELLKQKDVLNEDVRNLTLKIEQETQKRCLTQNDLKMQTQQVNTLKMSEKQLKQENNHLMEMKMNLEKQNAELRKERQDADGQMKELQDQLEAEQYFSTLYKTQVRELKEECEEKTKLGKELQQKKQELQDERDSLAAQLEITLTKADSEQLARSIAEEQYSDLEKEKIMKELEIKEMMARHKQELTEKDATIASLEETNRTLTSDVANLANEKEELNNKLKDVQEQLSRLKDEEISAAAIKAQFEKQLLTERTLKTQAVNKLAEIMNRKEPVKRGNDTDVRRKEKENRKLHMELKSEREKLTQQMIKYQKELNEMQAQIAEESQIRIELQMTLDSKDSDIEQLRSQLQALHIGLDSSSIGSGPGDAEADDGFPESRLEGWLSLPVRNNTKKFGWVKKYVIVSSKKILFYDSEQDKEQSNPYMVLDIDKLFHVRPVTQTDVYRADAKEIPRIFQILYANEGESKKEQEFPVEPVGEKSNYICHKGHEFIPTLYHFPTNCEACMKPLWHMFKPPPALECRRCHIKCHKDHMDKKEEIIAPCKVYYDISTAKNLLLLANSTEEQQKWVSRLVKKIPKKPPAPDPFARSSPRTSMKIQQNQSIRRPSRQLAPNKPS

Sequence of Rho-associated protein kinase 1 (Q13464 whole entry): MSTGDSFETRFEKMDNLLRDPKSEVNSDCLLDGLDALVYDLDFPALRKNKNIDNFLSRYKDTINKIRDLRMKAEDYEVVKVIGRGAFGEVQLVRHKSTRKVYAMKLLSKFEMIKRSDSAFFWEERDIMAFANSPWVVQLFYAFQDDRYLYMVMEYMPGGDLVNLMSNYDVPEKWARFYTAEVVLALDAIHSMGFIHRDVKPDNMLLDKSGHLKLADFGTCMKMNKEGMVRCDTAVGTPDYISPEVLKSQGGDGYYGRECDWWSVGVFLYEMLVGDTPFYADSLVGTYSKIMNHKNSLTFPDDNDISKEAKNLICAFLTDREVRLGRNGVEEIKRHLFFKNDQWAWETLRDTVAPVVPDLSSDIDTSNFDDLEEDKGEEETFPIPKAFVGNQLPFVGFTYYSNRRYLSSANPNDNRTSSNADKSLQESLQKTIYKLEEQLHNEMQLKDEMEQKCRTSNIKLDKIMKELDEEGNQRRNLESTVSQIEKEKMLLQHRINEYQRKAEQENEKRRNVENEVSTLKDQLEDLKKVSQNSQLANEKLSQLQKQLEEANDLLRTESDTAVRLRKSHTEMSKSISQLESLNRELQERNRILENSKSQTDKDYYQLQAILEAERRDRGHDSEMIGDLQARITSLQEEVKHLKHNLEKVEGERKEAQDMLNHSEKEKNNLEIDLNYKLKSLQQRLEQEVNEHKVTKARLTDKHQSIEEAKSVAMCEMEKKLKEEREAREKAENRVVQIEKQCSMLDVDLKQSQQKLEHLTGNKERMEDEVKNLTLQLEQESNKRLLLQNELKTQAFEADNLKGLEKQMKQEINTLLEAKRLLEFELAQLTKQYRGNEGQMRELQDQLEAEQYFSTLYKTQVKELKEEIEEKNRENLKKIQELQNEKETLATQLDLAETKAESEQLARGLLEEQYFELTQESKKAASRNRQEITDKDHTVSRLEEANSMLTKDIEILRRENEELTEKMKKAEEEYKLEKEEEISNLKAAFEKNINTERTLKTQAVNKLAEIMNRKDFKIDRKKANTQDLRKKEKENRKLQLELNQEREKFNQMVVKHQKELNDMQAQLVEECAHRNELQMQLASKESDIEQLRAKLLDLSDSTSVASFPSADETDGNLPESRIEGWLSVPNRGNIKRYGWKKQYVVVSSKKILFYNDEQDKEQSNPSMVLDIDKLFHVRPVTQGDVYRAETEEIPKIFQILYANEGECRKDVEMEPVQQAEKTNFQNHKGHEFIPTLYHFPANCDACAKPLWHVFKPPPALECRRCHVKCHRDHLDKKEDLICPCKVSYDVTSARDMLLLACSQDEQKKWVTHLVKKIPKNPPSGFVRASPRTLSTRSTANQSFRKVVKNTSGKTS

On to `O=C(Nc1ccncc1)c1cnccc1-c1ccc(F)cc1`, for which the IC50 in experiment [1] and in experiment [2] was greater than 400 µM in each case.
As to `O=C(Nc1ccncc1)c1cncc(-c2ccc(F)cc2)c1`, the IC50 in experiment [1] and in experiment [2] was greater than 400 µM each time.

One may read the IC50 as the midpoint of a concentration-inhibition curve. Higher therefore signals a need for much substance.

(Values after ChEMBL document CHEMBL2021814, “Fragment-based and structure-guided discovery and optimization of Rho kinase inhibitors” (J Med Chem, 2012).)
